{
  "source": "patent US9073858B2",
  "about": "“Methods of targeted drug development” (priority 2010, dated 2015)",
  "key": {"EGFR": {"target": "T1, EGFR (Homo sapiens, UniProt P00533)", "T1 construct": "endogenous in cells; host or cells: A431 cells (ATCC CRL-1555)", "T1 sequence (P00533 25-1210)": "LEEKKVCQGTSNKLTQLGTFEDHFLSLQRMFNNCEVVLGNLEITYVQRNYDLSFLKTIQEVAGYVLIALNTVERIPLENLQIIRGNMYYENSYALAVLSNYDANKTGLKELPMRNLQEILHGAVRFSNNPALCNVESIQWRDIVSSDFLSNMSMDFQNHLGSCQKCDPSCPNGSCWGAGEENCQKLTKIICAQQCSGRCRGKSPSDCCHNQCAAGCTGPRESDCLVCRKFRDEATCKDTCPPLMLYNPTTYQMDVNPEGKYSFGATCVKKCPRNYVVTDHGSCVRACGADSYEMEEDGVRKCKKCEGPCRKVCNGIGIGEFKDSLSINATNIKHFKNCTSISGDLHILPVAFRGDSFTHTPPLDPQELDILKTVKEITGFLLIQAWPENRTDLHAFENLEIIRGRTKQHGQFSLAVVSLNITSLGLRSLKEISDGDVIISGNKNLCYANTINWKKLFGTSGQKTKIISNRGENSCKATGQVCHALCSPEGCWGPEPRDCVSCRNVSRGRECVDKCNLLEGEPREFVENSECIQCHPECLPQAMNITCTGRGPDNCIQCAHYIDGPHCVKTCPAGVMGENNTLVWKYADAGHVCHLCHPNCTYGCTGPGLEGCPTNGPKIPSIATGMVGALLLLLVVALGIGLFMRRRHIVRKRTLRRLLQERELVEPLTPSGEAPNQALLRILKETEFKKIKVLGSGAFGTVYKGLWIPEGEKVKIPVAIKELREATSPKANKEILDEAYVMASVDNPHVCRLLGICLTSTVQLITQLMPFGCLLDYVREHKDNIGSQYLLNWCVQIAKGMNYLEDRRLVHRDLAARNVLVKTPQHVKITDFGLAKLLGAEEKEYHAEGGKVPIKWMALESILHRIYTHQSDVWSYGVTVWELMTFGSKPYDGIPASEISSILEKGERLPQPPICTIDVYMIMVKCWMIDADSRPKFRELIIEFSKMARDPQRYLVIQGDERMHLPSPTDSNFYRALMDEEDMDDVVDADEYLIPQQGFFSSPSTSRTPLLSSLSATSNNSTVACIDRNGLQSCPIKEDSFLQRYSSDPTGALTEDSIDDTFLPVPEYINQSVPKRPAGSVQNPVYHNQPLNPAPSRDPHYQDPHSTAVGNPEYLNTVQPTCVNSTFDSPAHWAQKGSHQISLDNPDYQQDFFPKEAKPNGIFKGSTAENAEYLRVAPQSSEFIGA", "test": "EGFR in-cell Western (ICW) screening protocol", "type": "cell-based", "parameters": "unit not given here", "details": "listed as 1505", "in_short": "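Serum-starved cells treated with compound 4 h at 37 °C, then stimulated with EGF (20 or 0 ng/ml solution added) in its continued presence. In-cell Western on fixed cells: phospho-EGFR (800 channel) normalised to total EGFR (700 channel), % inhibition calculated against EGF-stimulated and unstimulated no-compound wells.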"}, "[1]": {"test_system": "epithelial carcinoma A431 cell line", "test": "MTT Cell Proliferation Assay, A431 cell line", "type": "cell-based", "details": "72 h", "in_short": "(§1)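 Cells plated overnight, then exposed 3 days at 37 °C, 5% CO2 to compound in growth medium with 0.5% FBS and 0.5% DMSO final (0.5% DMSO as control).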"}, "MDBK line": {"test_system": "MDBK line", "test": "MTT Cell Proliferation Assay, MDBK line", "type": "cell-based, bovine", "details": "72 h; second value of A431/MDBK pair; read-out: MTT-72 h MDBK", "in_short": "as §1"}, "[2]": {"target": "T2, EGF binding site, rat liver membranes (Rattus norvegicus, UniProt G3V6K6)", "T2 construct": "Receptor source was rat liver membranes; tissue NovaScreen BioSciences; host or cells: rat liver membranes", "T2 sequence (G3V6K6 25-1209)": "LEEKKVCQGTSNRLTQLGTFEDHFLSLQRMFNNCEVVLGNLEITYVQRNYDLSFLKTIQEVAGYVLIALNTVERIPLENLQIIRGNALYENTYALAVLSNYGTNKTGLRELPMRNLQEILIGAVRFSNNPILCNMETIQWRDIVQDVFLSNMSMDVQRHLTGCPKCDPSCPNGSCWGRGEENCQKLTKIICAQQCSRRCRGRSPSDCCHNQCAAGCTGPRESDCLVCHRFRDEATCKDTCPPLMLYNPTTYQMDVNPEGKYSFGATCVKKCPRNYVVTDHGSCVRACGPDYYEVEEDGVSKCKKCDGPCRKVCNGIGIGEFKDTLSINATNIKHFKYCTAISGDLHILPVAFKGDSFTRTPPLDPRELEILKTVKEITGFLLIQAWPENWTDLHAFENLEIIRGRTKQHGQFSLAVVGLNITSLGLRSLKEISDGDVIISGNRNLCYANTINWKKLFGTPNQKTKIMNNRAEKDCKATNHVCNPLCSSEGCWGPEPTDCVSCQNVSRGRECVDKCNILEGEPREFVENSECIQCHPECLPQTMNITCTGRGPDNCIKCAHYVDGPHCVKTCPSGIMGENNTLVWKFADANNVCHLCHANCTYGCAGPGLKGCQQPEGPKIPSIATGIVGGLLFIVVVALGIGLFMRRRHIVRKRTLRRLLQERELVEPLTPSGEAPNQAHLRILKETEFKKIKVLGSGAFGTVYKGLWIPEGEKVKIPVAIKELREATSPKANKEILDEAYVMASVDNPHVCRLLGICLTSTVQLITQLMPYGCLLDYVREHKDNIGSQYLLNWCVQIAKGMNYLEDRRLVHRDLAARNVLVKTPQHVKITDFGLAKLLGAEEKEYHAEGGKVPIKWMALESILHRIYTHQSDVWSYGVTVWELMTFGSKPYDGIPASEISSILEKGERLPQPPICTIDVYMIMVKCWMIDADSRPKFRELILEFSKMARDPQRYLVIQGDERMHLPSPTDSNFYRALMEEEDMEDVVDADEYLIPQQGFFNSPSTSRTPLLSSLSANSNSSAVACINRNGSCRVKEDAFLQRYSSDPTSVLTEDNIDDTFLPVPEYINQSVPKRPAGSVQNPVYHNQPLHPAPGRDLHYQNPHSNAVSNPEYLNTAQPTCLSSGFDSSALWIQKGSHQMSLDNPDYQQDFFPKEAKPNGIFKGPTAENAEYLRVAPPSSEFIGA", "test": "Inhibition of [125I]EGF binding (NovaScreen EGF inhibitor assay)", "description": "Identified compounds, representing various pharmacaphore models, were tested for ability to inhibit EGFR at 25 μM.\nAD4-compounds were identified using pharmacophore models (see Example 3) and then were docked with the binding site of EGFR (SEQ ID NO: 1) that is recognized by defined CDRs of cetuximab.\nReceptor source was rat liver membranes. The radioligand was [^125I]EGF ([…]) at a final ligand concentration of 0.36 nM. A non-specific determinant was used as EGF—[100 nM]. The reference compound and positive control was EGF. Reactions were carried out in 10 mM HEPES (pH 7.4) containing 0.1% BSA at 25° C. for 60 minutes. The reaction was terminated by rapid vacuum filtration onto glass fiber filters. Radioactivity trapped onto the filters was determined and compared to control values to ascertain any interactions of test compounds with the EGF binding site. The EGF inhibitor assays were modified from, for example, Mukku (1984) J. Biol. Chem. 259, 6543-6546; Duh et al. (1990) World J. Surgery 14, 410-418; Lokeshwar et al. (1989) J. Biol. Chem. 264(32), 19318-19326."}, "[3]": {"test_system": "EGF receptor-mediated cell proliferation", "test": "Combinatorial studies with known EGFR inhibitors, median effect analysis (MTT assay)", "details": "for DRI @ ED97: Dose Reduction Index", "experimental": "Studies were initiated to evaluate the ability of various compounds disclosed herein to synergize with several compounds known to inhibit the function of the EGF receptor in a cell proliferation assay (MTT assay).\nThe EGFR inhibitor and AD4 compound dilutions were then mixed 1:1 in a 96 well plate. 50 μl of the mix was then added to the cell plate.\nA shifting of the inhibitor curve to the left indicates an increase in the effectiveness of the AD4-compound."}},
  "data": [
    {"smiles": "COc1ccc(C(Nc2cc(C)ccn2)c2ccc3cccnc3c2O)cc1O", "note": "(centres unmarked) [AD4-1505]", "values": [
      {"measurement": "ICW Screen", "setting": "EGFR; initial screen", "value": 55.71},
      {"measurement": "ICW Re-Test", "setting": "EGFR; re-test", "value": 47.05},
      {"measurement": "IC50", "setting": "[1]; first value of A431/MDBK pair, read-out: MTT-72 h A431", "value": 8.36, "unit": "µM"},
      {"measurement": "MTT-72 h A431/MDBK (ratio)", "setting": "[1]; value in brackets, numerically MDBK value over A431 value, listed as 1505", "value": 1.12},
      {"measurement": "IC50", "setting": "MDBK line", "value": 9.33, "unit": "µM"},
      {"measurement": "inhibition of epidermal growth factor binding", "setting": "[2]", "value": "inhibitor of epidermal growth factor binding to its receptor"},
      {"measurement": "CI @ ED90", "setting": "[3]; Combination Index with Iressa at 90% inhibition", "value": 0.59},
      {"measurement": "CI @ ED90", "setting": "[3]; Combination Index with Tykerb at 90% inhibition", "value": 0.10},
      {"measurement": "DRI @ ED97", "setting": "[3]; effect of the test compound on Iressa", "value": 78},
      {"measurement": "DRI @ ED97", "setting": "[3]; effect of the test compound on Tykerb", "value": 203},
      {"measurement": "synergy with Iressa", "setting": "[3]; based on CI value", "value": "shows synergy"},
      {"measurement": "synergy with Tykerb", "setting": "[3]; based on CI value", "value": "significant synergy"},
      {"measurement": "shift in Tykerb's dose-response curve", "setting": "[3]; in combination with Tykerb", "value": "leftward shift (i.e., greater potency)"},
      {"measurement": "IC50", "setting": "[3]; read-out: IC50 Iressa + Compound (nM)", "value": 133, "unit": "nM"}
    ]}
  ]
}
